The results in this text go back to patent publication US20150336977A1 (B.G. NEGEV TECHNOLOGIES AND APPLICATIONS LTD., priority 2013, published 2015).

Read-outs that look alike come from different tables or passages of the source.

The subject of this assay is MCF-7 cells. The assay is described as follows: MTT proliferation assay in estrogen-dependent MCF-7 breast cancer cells. Format: cell-based. As to conditions: for estrogenic activity relative to natural compound 1: comparison with coumestrol (compound 1). How it is done:
MCF-7 cells and MDA-MB-231 cells were maintained in Costar T75 flasks with Dulbeccos Modified Eagle Medium (DMEM) supplemented with 2 mM glutamine and 10% fetal bovine serum (Biological Industries Beit Haemek, LTD).
To deplete cells of estrogens, they were passaged for 1 week in phenol red-free DMEM supplemented with 10% estrogen-depleted calf serum (DCS/MEM) which was made by sequential treatment of calf serum with sulfatase and dextran-coated charcoal (Biological Industries Beit Haemek, LTD).
MCF-7 and MDA-MB-231 cells were plated in 96 well dishes (Costar) at approximately 5,000 cells/well and 2500 cells/well respectively in 100 ul medium. One day after plating (Day 0) 100 μl of the treatment media were added.
Final volume in each well was 200 μl. Each chemical was diluted to a final concentration of 10^−3M. At day 0 compounds 1 and 8b-8m (table 1) were diluted aside and 100 μl from each dilution were added to each well. The following dilution steps were performed: 2×10^−6M (4 μl of 10^−3M in 2 mL), 2×10^−7 M (200 μl of 2×10^−6M in 2 mL), 2×10^−8M (200 μl of 2×10^−7M in 2 mL) and 2×10^−9M (200 μl of 2×10^−8M in 2 mL).
Cell proliferation was quantified by colorimetric MTT assay. The use and validity of the MTT assay in MCF-7 cells is described by Martikainen et al.
Measurement of cell viability and proliferation were based on the reduction of tetrazolium salts using the MTT kit (Biological Industries Beit Haemek, LTD) according to the manufacturer instructions. The yellow tetrazolium MTT (3-(4,5-dimethylthiazolyl-2)-2,5-diphenyltetrazolium bromide) is reduced by metabolically active cells, in part by the action of dehydrogenase enzymes, to generate reducing equivalents such as NADH and NADPH. The resulting intracellular purple formazan can be solubilized and quantified by spectrophotometric means. The MTT Reagent yields low background absorbance values in the absence of cells. MTT assay was used to evaluate cell number in each well.
For orientation: Formazan colour is commonly taken as a measure of viable cells.

[1] abbreviates: Homo sapiens, MCF7, cell proliferation effect on MCF-7 cell line (estrogen dependent cells), MTT, NA = Not Active, read-out: IC50.
The mark [2] stands for this setting: Homo sapiens, MCF7, MCF-7 breast cancer cells, read-out: IC50 value.

The IC50 is the concentration at which inhibition is half-maximal.

In the case of `O=c1oc2cc(O)ccc2c2oc3cc(O)ccc3c12` [Compound 1, coumestrol], the IC50 (cell proliferation effect on MCF-7 cell line (estrogen dependent cells), MTT, NA = Not Active, read-out: IC50) amounted to 73 nM.
As for `O=c1oc2ccccc2c2oc3ccccc3c12` [Compound 8b], the “estrogenic activity relative to natural compound 1” value is “at least one order of magnitude less active”.
Regarding `O=c1oc2cc(O)ccc2c2oc3cc(O)c(O)cc3c12` [Compound 8c, 8-hydroxycoumestrol], the “estrogenic activity relative to natural compound 1” value is recorded as “at least one order of magnitude less active”.
Regarding `O=c1oc2ccccc2c2oc3cc(O)ccc3c12` [Compound 8d, 3-hydroxycoumestn], the “estrogenic activity relative to natural compound 1” value is on record as “at least one order of magnitude less active”. The “proliferative effect on the MCF-7 cells” value (ER-positive breast cancer line MCF-7, result in words) was “did not showed any proliferative effect”. Besides, under setting [1], the IC50 came out at 568 nM.
Regarding `O=c1oc2cc(O)ccc2c2oc3ccc(O)cc3c12` [Compound 8f], the “estrogenic activity relative to natural compound 1” value is on record as “at least one order of magnitude less active”.
As for `CC(=O)Nc1ccc2c(c1)oc1c3ccc(O)cc3oc(=O)c21` [Compound 8g], the IC50 is 30 nM under setting [2] and 30 nM under setting [1].
For `CC(=O)Nc1ccc2oc3c4ccc(O)cc4oc(=O)c3c2c1` [Compound 8h, 8-acetamidecoumestrol], the IC50 reads like this: under setting [2], less than 1 nM; under setting [1], 9 nM.
Regarding `O=c1oc2cc(O)ccc2c2oc3ccc(Br)cc3c12` [Compound 8i], the concentration for half-maximal inhibition (IC50) came to 107 nM under setting [2] and 107 nM under setting [1].
As for `O=c1oc2cc(O)ccc2c2oc3ccc(F)cc3c12` [Compound 8j], under setting [1], the IC50 worked out at 220 nM.
`CCOC(=O)c1ccc2oc3c4ccc(O)cc4oc(=O)c3c2c1` [Compound 8k]: the IC50 is 58 nM under setting [2] and 58 nM under setting [1].
On to `O=c1oc2cc(O)ccc2c2oc3ccc(C(F)(F)F)cc3c12` [Compound 8l, 3-trifluoromethylcoumestrol], for which the concentration for half-maximal inhibition (IC50) is, setting by setting: under setting [2], 170 nM; under setting [1], 170 nM.
Take `O=c1oc2cc(O)ccc2c2oc3ccc4ccccc4c3c12` [Compound 8m, napthocoumestrol]: the IC50 stood at 180 nM under setting [2] and 180 nM under setting [1].
